Assay results from patent US20080300147A1, “Detection and Treatment of Fibrotic Disorders” (priority 2004, published 2008).

Tested on: myometrium
Assay: Realtime PCR mRNA expression in myometrium, GnRHa therapy vs untreated
Type: in vivo, human
Text: Tissues. Portions of leiomyoma and matched myometrium were collected from premenopausal women (N=6) who were scheduled to undergo hysterectomy for indications related to symptomatic leiomyomas. Three of the patients received GnRHa therapy for three months prior to surgery. […] To maintain a standard, all leiomyomas selected for this study were between 2 to 3 cm in diameter. […] The tissues were collected at the University of Florida affiliated Shands Hospital with prior approval obtained from the Institutional Review Board.
Quantitative RealTime PCR. Realtime PCR was utilized for verification of 10 differentially expressed and regulated genes identified in leiomyoma and myometrium as well as LSMC and MSMC from untreated and GnRHa-treated cohorts. The selection of these genes was based not only on their expression values (up or downregulation), but classification and biological functions important to leiomyoma growth and regression, regulation by ovarian steroids, GnRHa and TGF-β. They are IL-11, CITED2, Nur77, EGR3, TGIF, TIEG, p27, p57, GAS-1 and GPRK5 representing cytokines, transcription factors, cell cycle regulators and signal transduction.
Portions of leiomyoma and matched myometrium were collected from premenopausal women (N=27) who were scheduled to undergo hysterectomy for symptomatic uterine leiomyomas at the University of Florida affiliated Shands Hospital. Of these patients seven received GnRHa therapy for a period of three months prior to surgery. […] To maintain a standard, leiomyomas used in this study were 2 to 3 cm in diameter. Prior approval was obtained from the University of Florida Institutional Review Board for the experimental protocol of this study.
Portions of leiomyoma and matched myometrium were collected from premenopausal women (N=27) who were scheduled to undergo hysterectomy for symptomatic uterine leiomyomas at the University of Florida affiliated Shands Hospital. Of these patients, seven received GnRHa therapy for a period of three months prior to surgery. […] To maintain a standard, leiomyomas used in this study were 2 to 3 cm in diameter. Prior approval was obtained from the University of Florida Institutional Review Board for the experimental protocol of this study.
Realtime PCR. Briefly, total RNA was isolated from leiomyoma and matched myometrium using Trizol Reagent (INVITROGEN, Carlsbad, Calif.) and complimentary DNA was generated from 2 μg of total RNA using Taqman reverse transcription reagent. The newly synthesized cDNA was used for PCR performed in 96-well optical reaction plates with cDNA equivalent to 100 ng RNA in a volume of 50 μl reaction containing 1× Taqman Universal Master Mix, optimized concentrations of FAM-labeled probe and specific forward and reverse primer for FMOD selected from Assay on Demand (APPLIED BIOSYSTEMS). Controls included RNA subjected to RT-PCR without reverse transcriptase and PCR with water replacing cDNA.

[1] = GnRHa therapy three months vs untreated

## CCNC(=O)[C@@H]1CCCN1C(=O)[C@H](CCCNC(=N)N)NC(=O)[C@H](CC(C)C)NC(=O)[C@@H](CC(C)C)NC(=O)[C@H](Cc1ccc(O)cc1)NC(=O)[C@H](CO)NC(=O)[C@H](Cc1c[nH]c2ccccc12)NC(=O)[C@H](Cc1c[nH]cn1)NC(=O)[C@@H]1CCC(=O)N1 [GnRHa, leuprolide acetate]
GnRHa therapy three months (N=7) vs untreated
  FMOD mRNA expression in myometrium: significantly reduced
[1]
  CCN3 mRNA expression in myometrium: significant reduction
  CCN4 mRNA expression in myometrium: significant reduction
  S100A4 mRNA expression in myometrium: significant reduction
GnRHa therapy vs untreated
  CITED2 expression in myometrium: increased
  GPRK5 expression in myometrium: inhibits
  IL-11 expression in myometrium: suppressed
  Nur77 expression in myometrium: significant elevation
